System: human promyelocytic leukemia HL-60 cells
Test: in vivo anti-tumor (anti-leukemia) study, HL-60 xenografts in nude mice
Parameters: species or system Athymic nude mice (BALB/c nu/nu)
Conditions: for % inhibition for 1.5 mg/kg/day dosage group: 1.5 mg/kg/day oral (gastric gavage), from relative tumor weight vs control
Protocol: The following study on nude mice was conducted to investigate the in vivo anti-tumor activities, specifically the anti-leukemia effects, of ergosta-7,22-dien-3β-ol.
Athymic nude mice (BALB/c nu/nu, with body weight of 20-25 g and aged 6-10 weeks) were kept in autoclaved cages with polyester fiber filters to avoid contact with the pathogens. All the animal diet and tap water were autoclaved before feeding to nude mice ad libitum.
Suspension of 1×10^7 of human promyelocytic leukemia HL-60 cells was then injected subcutaneously (s.c.) into the dorsal side of nude mice.
In this study, the tested item was the powders of ergosta-7,22-dien-3β-ol obtained according to the method described in Example 1 above.
When palpable tumors (about 100-200 mm^3 in volume) arose within 14-21 days after injection, the mice were randomly divided into three treatment groups and one control group in which each group consisted of 15 mice. Then, the mice in the treatment group were administrated with the tested item at three dose levels of 1.5, 15.0 or 50.0 mg (of tested item)/kg (of body weight of mouse)/day (in distilled water), while those mice in the control group were administrated with distilled water (as control vehicle). Both groups of mice were administrated by oral route (gastric gavage) daily (except Sundays) for up to 28 days. Tumor dimension was measured on every Mondays, Wednesdays and Fridays.
Tumor dimension was measured by Vernier caliper and tumor weight and tumor volume were calculated according to the following formulae:
Tumor weight (mg)=L×W^2×π/6; and
Tumor volume (mm^3)=L×W×H×π/6;
where L, W, and H were the major dimension, the minor dimension, and the height of the tumor respectively (π=3.1416).
The relative tumor weight was calculated by dividing the tumor weight on a certain day by the mean tumor weight on Day 1. Similarly, the relative tumor volume was calculated by dividing the tumor volume on a certain day by the mean tumor volume on Day 1.
Upon 28 days of administration, the nude mice were euthanized and the final body and tumor weights were recorded for calculating the ratio of the final tumor-to-body weight.
The above-shown results were expressed as the mean±SE of the percentage of inhibition of the tested item on the growth of HL-60 xenografts in nude mice in single experiments. Percentage of inhibition (for any Day n) was calculated from the following formula:
(1−relative tumor weight of treatment group on Day n/relative tumor weight of control group on Day n)×100%.

[1] = 1.5, 15.0 or 50.0 mg/kg/day oral, up to 28 days, all three treatment groups, 1.5 mg/kg/day most significant

`CC(C)[C@@H](C)/C=C/[C@@H](C)[C@H]1CC[C@H]2C3=CCC4C[C@@H](O)CC[C@]4(C)[C@H]3CC[C@]12C` (stereo partly drawn) [ergosta-7,22-dien-3β-ol] was tested, and the Anti-tumor activity (1.5, 15.0 and 50.0 mg/kg/day oral, HL-60 xenografts in nude mice) was “observed at all three dosage groups”, the “percentage ratios of final tumor-to-body weight” value (1.5, 15.0 or 50.0 mg/kg/day oral, after 28 days, three treatment groups vs control, 1.5 mg/kg/day most significant) was “lower than that of the control group” and the relative tumor volume [1] was “some effects in the reductions”. The relative tumor weight [1] was “some effects in the reductions”, the “% inhibition for 1.5 mg/kg/day dosage group” value (“% inhibition” for short) (Day 1, HL-60 xenografts in nude mice) was 0.00% and the “% inhibition” value (Day 3, HL-60 xenografts in nude mice) was 11.35%. For the same compound, the “% inhibition” value (Day 5, HL-60 xenografts in nude mice) was 11.24%, the “% inhibition” value (Day 8, HL-60 xenografts in nude mice) was 23.69% and the “% inhibition” value (Day 10, HL-60 xenografts in nude mice) was 31.65%. The “% inhibition” value (Day 12, HL-60 xenografts in nude mice) was 32.32%, the “% inhibition” value (Day 15, HL-60 xenografts in nude mice) was 30.61% and the “% inhibition” value (Day 17, HL-60 xenografts in nude mice) was 34.99%. The “% inhibition” value (Day 19, HL-60 xenografts in nude mice) was 43.19%, the “% inhibition” value (Day 22, HL-60 xenografts in nude mice) was 38.94% and the “% inhibition” value (Day 24, HL-60 xenografts in nude mice) was 40.57%. For the same compound, the “% inhibition” value (Day 26, HL-60 xenografts in nude mice) was 44.32%.

Reference: US20090247497A1, “FORMULATION AND USE OF ERGOSTA-7,22-DIEN-3BETA-OL” (priority 2008, published 2009)
